Results on 35 compounds are retold here after a melting point compilation (Tetko et al.; mined from patent text by program, amines drawn as free bases though some values may be those of a salt).

With `O=COCc1c(Cl)ccc2cc(Cl)cnc12`, the melting point (commonly the temperature of the solid-liquid transition) was found to be 146 °C.

On to `CCOC(=O)c1c(Nc2ccccc2SC)n[nH]c1C`, for which the melting point is 135 to 158 °C.

The compound `CON=C(c1cc(C)no1)c1ccccc1COc1ncc(C(F)(F)F)cc1Cl` yielded a melting point of 77 to 79 °C.

In turn, `COC(=O)CCCCc1ccc(C(=O)Cc2ccccc2)cc1` displayed a melting point of 53.5 to 54 °C.

Regarding `CCCN(CCC)CCCC1CCN(CCNC(=O)N2c3cc(Cl)ccc3C(=O)Nc3cccnc32)CC1`, the melting point was 174 to 175 °C.

`CCOC(=O)c1ccc(NC(=O)C=CC=C(c2ccc(Cl)cc2)c2ccc(Cl)cc2)cc1` had a melting point of 216 to 218 °C.

For the compound `Cc1c(CC(=O)N[C@@H](CO)C(=O)O)cc(-c2ccc(S(C)(=O)=O)cc2)n1-c1ccccc1`, the melting point fell in the range of 80 to 83 °C.

`C=C[C@H]1CN(c2c(F)cc3c(=O)c(C(=O)O)cn4c3c2OC[C@@H]4C)C[C@H]1N` gave a melting point of 238 to 240 °C.

As to `COc1cc2nc(N3CCN(C(=O)C=Cc4ccc(OC)c(OC)c4OC)CC3)nc(N)c2cc1OC`, the melting point lay in the range of 263 to 264 °C.

Compound `COc1cc2c(=O)n3cccc3cnc2cc1OCc1ccccc1` gave a melting point of 58 to 61 °C.

Compound `CC(=O)OC1CSC(Oc2cccc(-c3ccnc(F)c3)c2)C(OC(C)=O)C1OC(C)=O` (stereo not given) registered a melting point of 117 °C.

In the case of `CNc1nc(C(=O)O)ccc1C(=O)OC`, the melting point is 152 to 153 °C.

For the compound `CC(C)Oc1ccc(C(=O)c2ccc([N+](=O)[O-])cc2)cc1`, the melting point lay within 136 to 137 °C.

`Cc1cccc(C)c1NNC(=O)OCCCl` had a melting point of 74 to 75 °C.

As for `O=C1c2ccccc2C(=O)N1CC(=O)N1c2ccccc2N(Cc2ccccc2)C(=O)C2(Cc3ccccc3)CCCC12` (stereo not given), the melting point was in the range of 214 to 215 °C.

`Cc1cc(O)cc(C)c1-c1ccccc1` had a melting point of 128 to 130 °C.

Take `COC(CCCNC(=O)C1CCC(C(=O)NCCCC(OC)OC)CC1)OC` (stereo not given): the melting point lay in the range of 191 to 195 °C.

`Cc1ccc(S(=O)(=O)O[C@H](C)C(=O)N2C(=O)N(C)C[C@H]2C(=O)OCc2ccccc2)cc1`: the melting point lay within 153 to 155 °C.

The compound `CCCCCCCCCCCC(=O)N[C@@H](CC(C)C)C(=O)N[C@@H](C(C)C)[C@@H](O)c1c(-c2ccccc2)c1=O` showed a melting point of 123 to 127 °C.

Regarding `CS(=O)(=O)NC(c1ccc(Cl)c2nc3n(c12)CCCN3c1c(Cl)cc(Cl)cc1Cl)C(F)(F)F` (stereo not given), the melting point lay in the range of 290 to 291 °C.

In turn, `CN(C)c1cnc([N+](=O)[O-])cn1` gave a melting point of 221 to 223 °C.

Turning to `CCCC(O)P(=O)(O)CCCN` (stereo not given), the melting point worked out at 188 °C.

Turning to `CC1(COCc2ccccc2)COC(c2ccc([N+](=O)[O-])cc2)=N1` (stereo not given), the melting point fell in the range of 65 to 66 °C.

Compound `CC1(C)C(=O)N(C(=O)NCC2(O)CCN(CC3(C(=O)O)CCC3)CC2)c2cc(F)ccc21` showed a melting point of 159 °C.

In the case of `CCN1CCCC1Cc1cccc(NC(N)=O)c1` (stereo not given), the melting point was in the range of 114 to 116 °C.

Consider `COc1ccc(Cc2cnc(NCCSCc3nc[nH]c3C)[nH]c2=O)cn1`, for which the melting point is 197 to 198 °C.

In the case of `CCOC(=O)Nc1nc(C(=O)C(=O)OC)ns1`, the melting point lay in the range of 170 to 174 °C.

In turn, `COc1cc2c(cc1O)[nH]c1cc(-c3ccccc3Cl)c3c(c12)C(=O)NC3=O` yielded a melting point of 194 to 196 °C.

Consider `CCCc1cc2c(c3ccc(O)cc13)OCc1cc(O)ccc1-2`, for which the melting point fell in the range of 86 to 95 °C.

For the compound `COC(=O)C(Cl)=Cc1cc(N)ccc1Cl`, the melting point was in the range of 104 to 105 °C.

In turn, `O=C(O)CCCOc1ccc([N+](=O)[O-])cc1` yielded a melting point of 116 to 118 °C.

Consider `CC(Cl)OC(=O)c1ncc[nH]1` (stereo not given), for which the melting point amounted to 50 °C.

`Cc1nnc(C=Cc2ccccc2OC[C@@H](O)CN2CCC(c3ccc4ccccc4c3)CC2)o1`: the melting point fell in the range of 105 to 106 °C.

Take `CCOC(=O)C1=C(C)N(c2ccc(Cl)cc2)C(=O)CC1`: the melting point fell in the range of 124 to 126 °C.

For `COc1ccc(/C=C/c2cc(F)cc(F)c2)cc1`, the melting point lay within 108 to 110 °C.
